Counter-ions that a name gives are not always drawn. Like-named read-outs stand apart in the source and are kept apart here.

One data set has as its system SPY1101 (HUG1P-GFP). From the text:
Yeast having a HUG1-GFP promoter/reporter construct (called SPY1101; genotype is W303 MA:Ta/a ura3-52/ura3-52 his3::hisG/his3::hisG leu2::hisG/leu2::hisG HUG1P-GFP::HIS3/HUG1P-HUG1) were derived from S. cerevisiae strain SPY810 (wild-type yeast; genotype is W303 MATa/a ura3-52/ura3-52 his3::hisG/his3::hisG/leu2::hisG/leu2::hisG) using a PCR-based gene deletion method. Longtine M, et al., “Additional modules for versatile and economical PCR-based gene deletion and modification in Saccharomyces cerevisiae,” Yeast 14:953-961 (1998), incorporated herein by reference as if set forth in its entirety. Briefly, plasmid pFA6a-GFP(S65T)-His3MX6 (kindly provided by John Pringle at The University of North Carolina at Chapel Hill (Chapel Hill, N.C.); see also, Longtine et al., supra.), which contains GFP-S65T, was isolated from Escherichia coli DHα with a QIAprep Spin Miniprep Kit (Qiagen; Santa Clarita, Calif.).
Yeast from Example 1 (SPY1101) were exposed to the genotoxins shown in Table 2, which included alkylating agents, oxidizing agents, ribonucleotide reductase inhibitors, UV mimetic agents, glycopeptide antibiotics, quinoline-based alkaloids and ionizing radiation. Each genotoxin was added directly to a culture of SPY1101. Fresh phleomycin (Sigma) was aliquoted in water at a concentration of 20 mg/ml and stored at −20° C. until culture exposure. Likewise, CPT (Sigma) was aliquoted in dimethylsulfoxide (DMSO) at a concentration of 10 mg/ml and stored at −20° C. until culture exposure. All samples exposed to CPT were adjusted with DMSO, such that the final concentration of DMSO in the culture was 1% (v/v), regardless of CPT dose. γ-ray exposure was done using a Cs^137 source (exposure was 7 Gy/min and ended when the desired dose was reached). For all genotoxins (except γ-ray), exposure was continuous.
All DNA damage experiments included a minimum of three independent trials. SPY1101 were grown in rich medium (see, Sherman, supra) at 30° C. and with gentle shaking at 250 rpm to mid log-phase and then diluted to an OD600 of 0.1. After dilution, the culture was divided into 10 ml aliquots for exposure to one of the DNA damaging agents listed above. One culture aliquot was treated as a control and received no genotoxin, while the other aliquots each received one of seven different doses of the genotoxin, as listed in Table 2. In addition, SPY810 (wild-type control) were similarly treated. All cultures were then returned to 30° C. for incubation.
One hour after exposure, 1 ml of each culture was removed, and the OD600 was recorded to monitor culture growth. The cells were washed in PBS, re-suspended in fresh PBS to an OD600 of 0.2 and then placed in the dark on ice until flow cytometry analysis. This process was repeated every hour until eight hours had passed since the initial genotoxin exposure. The process was also repeated at twenty-four hours after initial genotoxin exposure.
Flow cytometry analysis was conducted as follows. For each replicate, at least 10,000 cells were analyzed for fluorescence using a flow cytometer (Becton Dickinson; Franklin Lakes, N.J.), and GFP induction analysis was performed with CellQuest™ and Flow-Jo software. Surviving cells were defined as whole cells (measured with light scattering) with intact cellular membranes (measured by exclusion of propidium iodide). All surviving cells were gated and used to measure GFP expression of the population. GFP expression histograms were prepared with WinMDI (available on the world wide web), using a live/dead gate based on propidium iodide exclusion. Histograms were created using a smoothing setting of 5.
SPY1101 were also exposed to general cell stress. All general cell stress experiments consisted of a minimum of three independent trials. SPY1101 were grown in rich medium at 30° C. and with gentle shaking at 250 rpm to mid log-phase and then diluted to an OD600 of 0.1. After dilution, the culture was divided into aliquots.

For a further data set, the system named is SPY1102 (mag1Δ). The experiment in a line: Viability of SPY1102 after genotoxin exposure. To be noted: after four hours of exposure. The class given is cell-based, S. cerevisiae.
The test system of data set [1] is SPY1103 (mre11aΔ, HUG1P-GFP).
Method: Yeast having a MRE11 deletion (SPY1103; also called mre11aΔ) were created from SPY1101.
(§1) Briefly, two hours after exposure, 1 ml of each culture-was removed and the OD600 was recorded to monitor cell proliferation. The cells were then washed in PBS and re-suspended to an OD600 of 0.2, and placed in the dark on ice until flow cytometry analysis. This process was repeated after 4, 6 and 8 hours after exposure.
The next data set deals with SPY810 (wild-type yeast). Nature of the data set: Fluorescence of wild-type control yeast SPY810 after genotoxin exposure. The class given is cell-based, S. cerevisiae. To be noted: 0.01% MMS for six hours. As for the experimental part: In addition, SPY810 (wild-type control) were similarly treated.
Flow cytometry analysis was conducted as follows. […] Histograms were created using a smoothing setting of 5.

For data set [2], the system named is SPY1102 (mag1Δ, HUG1P-GFP).
Method: as §1
The test system of another data set is SPY1103 (mre11aΔ). The experiment in a line: Viability of SPY1103 after genotoxin exposure. The format is cell-based, S. cerevisiae. To be noted: exposed to MMS.
Data set [3] deals with SPY1105 (mag1Δ/mre11bΔ, HUG1P-GFP).
Method: as §1

On to `Cl` [HCl], for which the “maximum induction of GFP fluorescence” value with SPY1101 (HUG1P-GFP) (1, 5, 10 or 15% (v/v) 1 N HCl, positive threshold >2 fold) was 1.5 fold.

On to `COS(C)(=O)=O` [MMS, methyl methanesulfonate], for which the “viability compared to SPY810 or SPY1101” value with SPY1102 (mag1Δ) is “less viable”. Further, in data set [1] (MMS, at its peak fluorescence), the “fluorescence induction at peak fluorescence” value is 49 fold. For the same compound, the “Relative Fluorescence” value in data set [1] (dose 0.0005%, exposure 6 h) was 2.7; in data set [2] (0.0005% MMS), 34; in data set [2] (dose 0.0001%, exposure 4 h), 3.0; in data set [3] (dose 0.0001%, exposure 4 h) it was 2.2; in the data set with SPY1101 (HUG1P-GFP) (0.0005% MMS (dose-response)), 4; in the data set on SPY1101 (HUG1P-GFP) (dose 0.0005%, exposure 6 h), 2.4. The “fluorescence of wild type control” value in the data set with SPY810 (wild-type yeast) was “did not fluoresce”. In addition, the peak fluorescence in data set [2] (0.005% MMS) was 154 fold. Moreover, in the data set with SPY1103 (mre11aΔ), the “viability compared to SPY1101” value is given as “no difference in viability”. Besides, in data set [3] (0.005% MMS (peak)), the relative fluorescence induction turned out to be 49 fold. Moreover, in the data set with SPY1101 (HUG1P-GFP) (0.0005% MMS, after 6 hours), the “increase of fluorescence compared to untreated cells” value was found to be 2.4 fold. This compound came in with a fluorescence upregulation with SPY1101 (HUG1P-GFP) (0.005% MMS) of 97 fold. Further, the “optimum (peak) fluorescence” value in the data set on SPY1101 (HUG1P-GFP) (0.01% MMS) worked out at 1.48 fold. Besides, the “increase of fluorescence (minimum induction time)” value in the data set on SPY1101 (HUG1P-GFP) (0.01% MMS, after 75 minutes) is 3 fold.

Consider `C=O` [formaldehyde], for which the “dose-dependent GFP expression” value in the data set with SPY1101 (HUG1P-GFP) (doses of Table 2, up to 24 h) is listed as “No dose-dependent induction of GFP expression”.
